In patent US20220273008A1, “PLANT BODY CONTAINING NOVEL STEVIOL GLYCOSIDE” (SUNTORY HOLDINGS LIMITED, priority 2019, published 2022):
Several values for one entry are separate records, joined by “and”; a condition that tells them apart may be missing. Equal entries are not always repeated.

Experiments:
[1] = Evaluation of sweetness level: choosing the sugar-added sample of equivalent sweetness intensity, trained panelists; type: in vivo, human; conditions: for Sweetness level, Average / Sweetness level, Highest / Sweetness level, Lowest: 48 mg in 400 mL pure water vs sugar samples of Brix 3.0 to 5.0, relative to sugar; for sweetness compared with sugar (in words): in vivo
Method: In order to evaluate the sweetness levels of Novel steviol glycosides A and B, samples were prepared by adding sugar to pure water to give Brix of 3.0 to 5.0 in 0.5 increments. Compounds 15 and 17 obtained by the chemical syntheses were used as Novel steviol glycosides A and B, respectively, where 48 mg of each sample was dissolved in 400 mL of pure water to be tested. In addition, samples were also prepared for comparison by dissolving 48 mg of each of Reb.A, Reb.D and Reb.M in 400 mL of pure water.

[2] = Sensory evaluation of taste quality of beverage samples (sweetness on-set, lingering sweet aftertaste, bitterness, lingering bitter aftertaste); type: in vivo, human; conditions: beverage samples in pure water adjusted to Brix 5 in terms of sugar, compared with Reb.A, Reb.D, Reb.M and sugar
Excerpt: (§1) In order to evaluate the taste quality of various steviol glycosides, Reb.A, Reb.D, Reb.M, sugar and Novel steviol glycoside A (Compound 15) were each added to pure water to prepare beverage samples. All of the beverage samples were adjusted to have final sweetness level (Brix) of 5 in terms of sugar (sucrose), and thus the sweetness levels of Reb.A, Reb.D, Reb.M and Novel steviol glycoside A (Compound 15) were 312, 317, 341 and 354, respectively.
(§2) The resulting beverage samples were subjected to sensory evaluation for rating the attributes, which were sweetness on-set, lingering sweet aftertaste, bitterness and lingering bitter aftertaste. Panelists who had been trained about sensory attributes of sweeteners (7 members) evaluated based on the following evaluation criteria. For each evaluation item, the steviol glycosides were scored in 0.5 increments provided that the score of sugar was 3. A higher score represents faster sweetness on-set, shorter lingering sweet aftertaste, less bitterness and shorter lingering bitter aftertaste. The evaluation scores shown in the diagram are the average scores of the scores from the 8 panelists.
as §1, with “glycoside B” for “glycoside A”, “(Compound 17)” for “(Compound 15)”, “were 288, 310, 324” for “were 312, 317, 341”, “and 250,” for “and 354,”
as §2, with “shorter lingering aftertaste. The” for “shorter lingering bitter aftertaste. The”, “from the 6 panelists.” for “from the 8 panelists.”

[3] = background art; cited from earlier work
[4] = evaluation of Novel steviol glycoside A (Table 10), 7 panelists
[5] = evaluation of Novel steviol glycoside B (Table 11)

SMILES | Sweetness level, Average [1, 4] | Sweetness level, Highest [1, 4] | Sweetness level, Lowest [1, 4] | sweetness compared with sugar (in words) [1] | bitterness [2] | Sweetness level, Average [1, 5] | Sweetness level, Highest [1, 5] | Sweetness level, Lowest [1, 5] | sweetness, times the sweetness of sugar [3] | also measured
C=C1CC23CCC4C(C)(C(=O)OC5OC(CO)C(O)C(O)C5OC5OCC(O)C(O)C5O)CCCC4(C)C2CCC1(OC1OC(CO)C(O)C(OC2OC(CO)C(O)C(O)C2O)C1OC1OC(CO)C(O)C(O)C1O)C3 (stereo not drawn) [Novel steviol glycoside A] | 354 and 354.1 | 415.8 | 319.0 | sweeter than sugar | less bitterness as compared to other components including sugar | – | – | – | – | sweetness level higher in average than that of sugar ([1]; average of panelists, 48 mg in 400 mL pure water): about 354 times; lingering bitter aftertaste [2]: shorter lingering bitter aftertaste as compared to other glycosides; lingering sweet aftertaste [2]: less sweetness; bitterness ([2]; listed as Glycoside A): weaker bitterness than other components including sugar; lingering bitter aftertaste ([2]; listed as Glycoside A): less lingering sweet and bitter aftertastes; lingering sweet aftertaste ([2]; listed as Glycoside A): less lingering sweet and bitter aftertastes
C=C1CC23CCC4C(C)(C(=O)OC5OC(CO)C(O)C(OC6OC(CO)C(O)C(O)C6O)C5OC5OC(CO)C(O)C(O)C5O)CCCC4(C)C2CCC1(OC1OC(CO)C(O)C(OC2OC(CO)C(O)C(O)C2O)C1OC1OCC(O)C(O)C1O)C3 (stereo not drawn) [Novel steviol glycoside B] | – | – | – | sweeter than sugar | weaker bitterness than other steviol glycosides | – | – | – | – | –
C=C1C[C@@]23CC[C@H]4[C@@](C)(CCC[C@@]4(C)C(=O)O[C@@H]4O[C@H](CO)[C@@H](O)[C@H](O)[C@H]4O)[C@@H]2CC[C@]1(O[C@@H]1O[C@H](CO)[C@@H](O)[C@H](O[C@@H]2O[C@H](CO)[C@@H](O)[C@H](O)[C@H]2O)[C@H]1O[C@@H]1O[C@H](CO)[C@@H](O)[C@H](O)[C@H]1O)C3 [Reb A, rebaudioside A] | 312.0 | 398.9 | 243.0 | – | – | 288.3 | 329.2 | 239.5 | 350-450 times | Sweetness level, Average ([1]; evaluation of Novel steviol glycoside A (Table 10), 7 panelists, listed as Reb.A): 312; Sweetness level, Average ([1]; evaluation of Novel steviol glycoside B (Table 11), listed as Reb.A): 288
C=C1C[C@@]23CC[C@H]4[C@@](C)(CCC[C@@]4(C)C(=O)O[C@@H]4O[C@H](CO)[C@@H](O)[C@H](O)[C@H]4O[C@@H]4O[C@H](CO)[C@@H](O)[C@H](O)[C@H]4O)[C@@H]2CC[C@]1(O[C@@H]1O[C@H](CO)[C@@H](O)[C@H](O[C@@H]2O[C@H](CO)[C@@H](O)[C@H](O)[C@H]2O)[C@H]1O[C@@H]1O[C@H](CO)[C@@H](O)[C@H](O)[C@H]1O)C3 [RebD, rebaudioside D] | 317.9 | 398.0 | 253.5 | – | – | 310.3 | 393.6 | 241.1 | – | Sweetness level, Average ([1]; evaluation of Novel steviol glycoside A (Table 10), 7 panelists, listed as Reb.D): 317; Sweetness level, Average ([1]; evaluation of Novel steviol glycoside B (Table 11), listed as Reb.D): 310
C=C1C[C@@]23CC[C@H]4[C@@](C)(CCC[C@@]4(C)C(=O)O[C@@H]4O[C@H](CO)[C@@H](O)[C@H](O[C@@H]5O[C@H](CO)[C@@H](O)[C@H](O)[C@H]5O)[C@H]4O[C@@H]4O[C@H](CO)[C@@H](O)[C@H](O)[C@H]4O)[C@@H]2CC[C@]1(O[C@@H]1O[C@H](CO)[C@@H](O)[C@H](O[C@@H]2O[C@H](CO)[C@@H](O)[C@H](O)[C@H]2O)[C@H]1O[C@@H]1O[C@H](CO)[C@@H](O)[C@H](O)[C@H]1O)C3 [RebM, rebaudioside M] | 341.1 | 352.2 | 286.0 | – | – | 323.6 | 373.4 | 236.5 | – | Sweetness level, Average ([1]; evaluation of Novel steviol glycoside A (Table 10), 7 panelists, listed as Reb.M): 341; Sweetness level, Average ([1]; evaluation of Novel steviol glycoside B (Table 11), listed as Reb.M): 324
C=C1C[C@@]23CC[C@H]4[C@@](C)(CCC[C@@]4(C)C(=O)O[C@@H]4O[C@H](CO)[C@@H](O)[C@H](O)[C@H]4O)[C@@H]2CC[C@]1(O[C@@H]1O[C@H](CO)[C@@H](O)[C@H](O)[C@H]1O[C@@H]1O[C@H](CO)[C@@H](O)[C@H](O)[C@H]1O)C3 [Stevioside] | – | – | – | – | – | – | – | – | 250-300 times | –
